Measured values: patent US9937104B2, “Nanostructured antibacterial and remineralizing dental bonding agents and dental bonding systems” (UNIVERSITY OF MARYLAND, BALTIMORE, priority 2012, dated 2018)
“Also recorded” adds a separate entry of the source.

How the values were obtained:
[1] = test system: S. mutans (ATCC 700610, UA159); assay: MIC and MBC by serial microdilution; type: cell-based, Streptococcus mutans; settings: for MIC and MBC relative to QADM: compared with QADM
Experimental: MIC and MBC were measured using S. mutans (ATCC 700610, UA159, American Type Culture, Manassas, Va.). S. mutans is a cariogenic, aerotolerant anaerobic bacterium and the primary causative agent of dental caries (Loesche 1986). MIC and MBC were determined via serial microdilution assays (Imazato S et al. 2006; Huang L et al. 2011). Unpolymerized DMAHM or DMADM monomer was dissolved in brain heart infusion (BHI) broth (BD, Franklin Lakes, N.J.) to give a final concentration of 200 mg/mL. From these starting solutions, serial two fold dilutions were made into 1 mL volumes of BHI broth. 15 μL of stock S. mutans was added to 15 mL of BHI broth with 0.2% sucrose and incubated at 37° C. with 5% CO2. Overnight cultures of S. mutans were adjusted to 2×10^6 CFU/mL with BHI broth, and 50 μL of inocula was added to each well of a 96-well plate containing 50 μL of a series of antibacterial monomer dilution broths. BHI broth with 1×10^6 CFU/mL bacteria suspension without antibacterial agent served as negative control. Chlorhexidine diacetate (CHX) (Sigma, St. Louis, Mo.) served as positive control. The previously-synthesized QADM (Antonucci J M et al. 2012; Cheng L et al. 2012a) served as an antibacterial monomer control. After incubation at 37° C. in 5% CO2 for 48 h, the wells were read for turbidity, referenced by the negative and positive control wells. MIC was determined as the endpoint (the well with the lowest antibacterial agent concentration) where no turbidity could be detected with respect to the controls (Huang L et al. 2011). To determine MBC, an aliquot of 50 μL from each well without turbidity was inoculated on BHI agar plates and incubated at 37° C. in 5% CO2 for 48 h. MBC was determined as the lowest concentration of antibacterial agent that produced no colonies on the plate. The tests were performed in triplicate (Huang L et al. 2011).
The use of S. mutans (ATCC 700610, American Type Culture, Manassas, Va.) was approved by the University of Maryland. S. mutans is a cariogenic, aerotolerant anaerobic bacterium and the primary causative agent of dental caries (Deng et al. 2004). MIC and MBC were determined via serial microdilution assays (Imazato et al. 2006; Huang et al. 2011). Unpolymerized DMAHM or DMADDM monomer was dissolved in brain heart infusion (BHI) broth (BD, Franklin Lakes, N.J.) to a concentration of 200 mg/mL. From these starting solutions, serial two fold dilutions were made into 1 mL volumes of BHI broth. […] The wells were read for turbidity after incubation at 37° C. in 5% CO2 for 48 h, referenced by the negative and positive control wells. MIC was defined as the endpoint (the well with the lowest antibacterial agent concentration) where no turbidity could be detected with respect to the controls (Huang et al. 2011). […]

[2] = test system: mature biofilms (48 hours); assay: Mature biofilm (48 hours) CFU, antibacterial monomers in primer and adhesive; type: cell-based; settings: 10% mass fraction in primer and adhesive (P&A control)
Experimental: FIG. 29. Effect of antibacterial monomers from Table 1, with chain length (CL) of 3, 6, 9, 12, 16 and 18, on mature biofilms (48 hours). Each monomer was mixed into the primer and adhesive control (P&A control) at 10% mass fraction (mean+−sd; n=6). […] CL=16 reduced the biofilm CFU by 4 orders of magnitude, compared to control.
FIG. 31. Effect of mass fraction of the antibacterial monomer DMAHDM (with chain length of 16) on mature biofilms (48 hours) (mean+−sd; n=6). […] DMAHDM at 10% mass fraction reduced the biofilm CFU by nearly 4 orders of magnitude, compared to control.

[3] = test system: Human gingival fibroblasts (HGF); type: cell-based; settings: MTT
Experimental: Human gingival fibroblasts (HGF, ScienCell) were cultured in a fibroblast medium (FM). […] Then, HGF were seeded in 96-well plates at 5,000 cells per well. […] After 4 h, the unreacted dye was removed and 150 μL of dimethyl sulfoxide was added. Absorbance was measured via the microplate reader at 492 nm. […] Cells were also live/dead stained (Molecular Probes) and examined with fluorescence microscopy (TE2000-S, Nikon) as shown in FIG. 15B.

**Q.** For `C=C(C)C(=O)OCC[N+](C)(C)CCCCCC.[Br-]` [DMAHM], which “MIC and MBC relative to QADM” value ([1]; S. mutans) is on record?
**A.** a lower concentration, by an order of magnitude

**Q.** With `C=C(C)C(=O)OCC[N+](C)(C)CCCCCCCCCCCCCCCC.[Br-]` [DMAHDM, dimethylamino hexadecyl methacrylate] as the compound, how does the “Reduction of mature biofilm CFU compared to control” value [2] read?
**A.** 4 orders of magnitude

**Q.** What about the “MBC and MIC potency relative to chain length 12” value ([1]; compared with chain length 12 monomer) of the same compound?
**A.** an order of magnitude more potent

**Q.** With `C=C(C)C(=O)OCCCCCCCCCCCC[n+]1ccccc1.[Br-]` [MDPB, reference compound] as the compound, how does the “Cytotoxicity compared with BisGMA” value [3] read?
**A.** less cytotoxic

**Q.** For `C=C(C)C(=O)OCC[N+](C)(C)CCCCCCCCCCCC.[Br-]` [DMADDM, dimethylamino dodecyl methacrylate], which “MIC and MBC relative to those of DMAHM” value ([1]; S. mutans, compared with DMAHM) is on record?
**A.** more than two orders of magnitude lower; also recorded: three orders of magnitude lower

**Q.** What about the “MIC and MBC relative to QADM” value ([1]; S. mutans) of the same compound?
**A.** four orders of magnitude lower

**Q.** And the “Cytotoxicity compared with BisGMA” value [3]?
**A.** less cytotoxic
